We go through 13 molecules from patent publication US12612412B2, “Antiviral heterocyclic compounds” (Enanta Pharmaceuticals, Inc., priority 2021, dated 2026).

The structures appear in SMILES notation.

Assay [1] relates to recombinant HMPV CAN97-83 containing eGFP (MPV-GFP1). Briefly: HMPV antiviral assay Method-A (MPV-GFP1 eGFP fluorescence in Vero E6 cells). The note with it: human metapneumovirus, Vero C1008, 120 h, read-out: HMPV EC50. In kind it is cell-based, Human metapneumovirus (HMPV). An outline of the steps: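 Vero E6 cells in serum-free OptiMEM with 0.5 μg/mL TPCK-trypsin were infected with eGFP-expressing HMPV CAN97-83 at MOI 0.05, with 8-point twofold dilutions from 8 or 2 μM (0.5% DMSO). After 5 days at 32° C, eGFP fluorescence gave % inhibition versus infected untreated wells. EC50 came from four-parameter logistic fits.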

The test system of assay [2] is genotype A, "Long" strain RSV. Briefly: RSV-A assay (CPE protection in Hep-2 cells, ATPlite readout). The assay is classed as cell-based, Human respiratory syncytial virus (HRSV). The note with it: human respiratory syncytial virus, genotype A “Long” strain RSV, MOI 0.1, CPE protection, read-out: Human RSV-A (“Long”). An outline of the steps: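 Hep-2, 8,000 cells/well, MOI 0.1 (PFU- or TCID50-based); 2-fold compound series, duplicates; 5 d incubation; ATPlite luminescence readout; EC50.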
A general note: ATP-based viability assays read luminescence as a measure of living cells.

For the molecule `COc1cc(C(=O)NC[C@](O)(c2cc3c(c(-c4ccc(Cl)c(F)c4)n2)OC[C@]3(C)C(N)=O)C(F)(F)F)cc2cc(C3CC3)nn12` [Example 301], the EC50 in assay [1] was under 500 nM; in assay [2], under 200 nM.

On to `[2H]C([2H])([2H])NC(=O)Nc1cc(C(=O)NC[C@](O)(c2cc3c(c(-c4ccc(F)cc4)n2)OC[C@]3(C)C(N)=O)C(F)(F)F)cc2cc(C)cnc12` [Example 329], for which the figures for the EC50 in assay [1] and in assay [2] were under 500 nM and under 200 nM, respectively.

As to `C[C@]1(C(N)=O)COc2c1cc([C@@](O)(CNC(=O)c1cc(C3CC3)c3nn(C(F)F)cc3c1)C(F)(F)F)nc2-c1ccc(F)c(Cl)c1` [Example 48], the values for the EC50 in assay [1] and in assay [2] were under 500 nM and under 200 nM, respectively.

As for `Cn1cc2cc(C(=O)NC[C@](O)(c3cc4c(c(-c5ccc(F)cc5)n3)OC[C@]4(C)C(N)=O)C(F)(F)F)cc(F)c2n1` [Example 22], the values for the EC50 in assay [1] and in assay [2] were under 500 nM and under 200 nM, respectively.

Regarding `Cc1cnc2c(Nc3ccc(O)nn3)cc(C(=O)NC[C@](O)(c3cc4c(c(-c5ccc(F)cc5)n3)OC[C@]4(C)C(N)=O)C(F)(F)F)cc2c1` [Example 120], the EC50 in assay [1] was over 500 nM; in assay [2], under 200 nM.

For `COc1cc(C(=O)NC[C@](O)(c2cc3c(c(-c4ccc(F)cc4)n2)OC[C@]3(C)C(N)=O)C(F)(F)F)ccc1OCC1(O)CC1` [Example 134], the values for the EC50 in assay [1] and in assay [2] were over 500 nM and under 200 nM, respectively.

`COc1cc(C(=O)NC[C@](O)(c2cc3c(c(-c4ccc(F)cc4)n2)OC[C@]3(C)C(N)=O)C(F)(F)F)cc2cc(C(F)(F)F)c(C)nc12` [Example 83]: the EC50 in assay [1] was under 500 nM; in assay [2], under 200 nM.

As for `CC[C@]1(C(N)=O)COc2c1cc([C@@](O)(CNC(=O)c1cc(OC3CC3)c3ncccc3c1)C(F)(F)F)nc2-c1ccc(F)cc1` [Example 235], the figures for the EC50 in assay [1] and in assay [2] were under 500 nM and under 200 nM, respectively.

Regarding `CC[C@]1(C(N)=O)COc2c1cc([C@@](O)(CNC(=O)c1cc(OC)c3nn(C(F)F)cc3c1)C(F)(F)F)nc2-c1ccc(F)cc1` [Example 234], the EC50 in assay [1] was under 500 nM; in assay [2], under 200 nM.

Regarding `COc1cc(C(=O)NC[C@](O)(c2cc3c(c(-c4ccc(F)cc4)n2)OC[C@]3(C)C(N)=O)C(F)(F)F)cc2sc(C3CC3)nc12` [Example 17], the EC50 in assay [1] was under 500 nM; in assay [2], under 200 nM.

Consider `Cc1cc2cc(C(=O)NC[C@](O)(c3cc4c(c(-c5ccc(F)cc5)n3)OC[C@]4(C)C(N)=O)C(F)(F)F)cc(OC(F)(F)F)c2nc1C` [Example 179], for which the EC50 was over 500 nM in assay [1] and under 200 nM in assay [2].

Consider `COc1cc(C(=O)NC[C@](O)(c2cc3c(c(-c4ccc(F)c(F)c4)n2)OC[C@]3(C)C(N)=O)C(F)(F)F)cc2cc(C(F)(F)F)cnc12` [Example 315], for which the EC50 is under 500 nM in assay [1] and under 200 nM in assay [2].

In the case of `C[C@]1(C(N)=O)COc2c1cc([C@@](O)(CNC(=O)c1cc(Cl)c3ncc(C(F)(F)F)cc3c1)C(F)(F)F)nc2-c1ccc(F)cc1` [Example 73], the EC50 was under 500 nM in assay [1] and under 200 nM in assay [2].
